Experimental data reported in patent EP1210336B1, “SUBSTITUTED BENZIMIDAZOLES AS NON-NUCLEOSIDE INHIBITORS OF REVERSE TRANSCRIPTASE” (THE UNITED STATES OF AMERICA, as represented by the …, priority 1999, dated 2001).

Target: T1, HIV-1 WT RT (Human immunodeficiency virus type 1 group M subtype B, UniProt P03366)
T1 construct: purified RT protein (0.015 mg/mL) was incubated in a 100 µL reaction mixture
Test: biochemical
Details: Table 1; WT RT, 10 µM drug concentration; read-out: %inhibn (10µM)

| Molecule | inhibition at 10 µM [%] |
| --- | --- |
| Cc1ccccc1-c1nc2ccccc2n1Cc1c(F)cccc1F [compound 36, 1-(2,6-difluorobenzyl)-2-(2-methylphenyl)benzimidazole] | 71 |
| Cc1cccc2c1nc(-c1cccc3ccccc13)n2Cc1c(F)cccc1F [compound 37, 1-(2,6-difluorobenzyl)-2-(1-naphthyl)-4-methylbenzimidazole] | 2 |
| Cc1cccc2c1nc(-c1ccc(C#N)cc1)n2Cc1c(F)cccc1F [compound 4007] | 26 |

Same assay, conditions: Table 2; WT RT, 10 µM drug concentration; read-out: %inhibn (10µM)

| Molecule | inhibition at 10 µM [%] |
| --- | --- |
| Fc1cccc(F)c1-c1nc2ccccc2n1Cc1ccccc1 [compound 28, 1-benzyl-2-(2,6-difluorophenyl)benzimidazole] | 71 |
| Cc1cccc2c1nc(-c1c(F)cccc1F)n2Cc1ccccc1 [compound 29, 1-benzyl-2-(2,6-difluorophenyl)-4-methylbenzimidazole] | 87 |
| Cc1cccc2c1nc(-c1c(F)cccc1F)n2Cc1c(Cl)cccc1Cl [compound 30, 1-(2,6-dichlorobenzyl)-2-(2,6-difluorophenyl)-4-methylbenzimidazole] | 58 |
| O=S(=O)(c1ccccc1)n1c(-c2c(F)cccc2F)nc2ccccc21 [compound 45] | 52 |
| Cc1cccc2c1nc(-c1c(F)cccc1F)n2S(=O)(=O)c1ccccc1 [compound 46] | 39 |

Same assay, conditions: Table 3; WT RT, 10 µM drug concentration; read-out: %inhibn (10 µM)

| Molecule | inhibition at 10 µM [%] |
| --- | --- |
| Fc1cccc(F)c1COCc1nc2ccccc2n1Cc1c(F)cccc1F [compound 32, 1-(2,6-difluorobenzyl)-2-(2,6-difluorobenzyloxymethyl)benzimidazole] | 7 |
| Cc1nc2ccccc2n1Cc1c(F)cccc1F [compound 35, 1-(2,6-difluorobenzyl)-2-methylbenzimidazole] | 22 |

System: WT virus (NL4-3)
Test: microbe, parasite or virus in culture
Type: cell-based, HIV-1
Details: Figures 10-12; result in words
Method: Evaluation of these compounds for the inhibition of HIV-1 was determined as the fifty percent cell culture inhibitory concentration (CIC50) in CEMSS cell culture with WT virus (NL4-3).
In this Example, the antiviral and cellular toxicity of NNRTIs was investigated, using the cytopathic cell killing assay described by Yang (Yang et al., "Characteristics of a Group of Non-nucleoside Reverse Transcriptase Inhibitors with Structural Diversity and Potent Anti-Human Immunodeficiency Virus Activity," Leukemia 9:S75-S85 [1995]). Briefly, in this method cells (e.g., the CEM-SS cell line, available from the NIAID AIDS Research and Reference Program [ARRRP]) were seeded at a density of 5 x 10^3 cells/well, into the wells of a 96-well microtiter plate. The cells were then infected with HIV virus (either mutant or WT), at a multiplicity of infection (MOI) previously determined to provide complete cell killing by 6 days of culture post-infection (e.g., MOI of 0.01-0.05). Each of the HIV isolates was pre-titered to induce equivalent levels of infection based on cell killing or virus production, prior to their use in these assays. A range of test compound concentrations was added to the wells in triplicate (e.g., serial half-log dilutions) to evaluate inhibition of HIV infection. Controls for each assay included drug controls (drug colorimetric control wells), drug cytotoxicity control wells (cells with drug), virus control wells (cells with virus), and cell viability controls (cells only). Positive control drugs (e.g., AZT and ddC) were also run in parallel.
After six days of incubation at 37°C, cell viability was determined spectrophotometrically at 450 nm for each well, using the metabolic reduction of XTT to a soluble colored formazan. (See, Gartner and Popovic, "Virus Isolation and Production, in Aldovini and Walker (eds.), Techniques in HIV Research, Stockton Press, NY, pp. […] [1991]; and Nara and Fischinger, "Quantitative Infectivity Assay for HIV-1 and HIV-2," Nature 332:469-470 [1988]).
The in vitro therapeutic index (TI50) was defined as the fold-difference between the EC50 and IC50. The results for the various compounds are included in Figures 8 and 19.

| Molecule | cytotoxicity and anti-viral effect (summary graph) |
| --- | --- |
| Fc1cccc(F)c1Cn1c(-c2c(F)cccc2F)nc2cc(Br)ccc21 [compound 38, 1-(2,6-Difluorobenzyl)-2-(2,6-difluorophenyl)-5-bromobenzimidazole] | inactive |

Same assay, conditions: Human immunodeficiency virus 1, NL43, CEM-SS, Table 11; CEMSS/NL4-3; NRVC = reduction in viral CPE not seen (footnote); read-out: EC50

| Molecule | EC50 [nM] |
| --- | --- |
| N=C(NO)c1cccc2c1nc(-c1c(F)cccc1F)n2Cc1c(F)cccc1F [compound 61, N-hydroxy 1-(2,6-difluorobenzyl)-2-(2,6-difluorophenyl)benzimidazole-4-carboxamidine] | 190 |

Same assay, conditions: Table 11; CEMSS/NL4-3; NRVC = reduction in viral CPE not seen (footnote)

| Molecule | EC50 (µM) |
| --- | --- |
| 1-(2,6-Difluorobenzyl)-2-(2,6-difluorophenyl)benzimidazole-4-carboxylate [compound 64] | NRVC |
| CN(C)C(=O)c1cccc2c1nc(-c1c(F)cccc1F)n2Cc1c(F)cccc1F [compound 63, 1-(2,6-difluorobenzyl)-2-(2,6-difluorophenyl)benzimidazole-4-carboxylic acid dimethylamide] | NRVC |

Same assay, conditions: Table 11; CEMSS/NL4-3; NRVC = reduction in viral CPE not seen (footnote); read-out: EC50

| Molecule | EC50 [nM] |
| --- | --- |
| 1-(2,6-Difluorobenzyl)-2-(2,6-difluorophenyl)-4-hydroxyl-benzimidazole [compound 52] | 630 |
| 1-(2,6-Difluorobenzyl)-2-(2,6-difluorophenyl)-4-hydroxymethylbenzimidazole [compound 67] | 23 |
| 1-(2,6-Difluorobenzyl)-2-(2,6-difluorophenyl)-4-isopropenylbenzimidazole [compound 66] | 1440 |
| 1-(2,6-Difluorobenzyl)-2-(2,6-difluorophenyl)-benzimidazole-4-carbaldehyde [compound 68] | 120 |
| 1-(2,6-difluorobenzyl)-2-(2,6-difluorophenyl)-4-acetoxymethylbenzimidazole [compound 51] | 59 |
| 1-(2,6-difluorobenzyl)-2-(2,6-difluorophenyl)-4-chloromethylbenzimidazole [compound 69] | 180 |
| 1-(2,6-difluorobenzyl)-2-(2,6-difluorophenyl)-4-cyanobenzimidazole [compound 60] | 430 |
| 1-(2,6-difluorobenzyl)-2-(2,6-difluorophenyl)benzimidazol-4-yl-methylamine [compound 71] | 37 |
| 1-(2,6-difluorobenzyl)-2-(2,6-difluorophenyl)benzimidazole-4-carboxylic acid amide [compound 62] | 4900 |
